Reference: US6887894B2, “Use of lipoic acid for improving the bioavailability of mineral salts” (BASF Aktiengesellschaft, priority 2000, dated 2005)
“And” between values parts separate entries of the source, which are not always exact repeats. Equal values may be shown once. Marks after values point to notes of the source that are not given here.

Tests used:
Format in all cases: in vivo
[1] = Study 3: Zn intake, fecal excretion and apparent absorption of zinc; settings: rats
Protocol: (§1) 36 male Wistar albino rats (Harlan Winkelmann, Borchen) having an initial weight of 47.0±2.63 g were randomly divided into 6 groups each of 6 animals and fed the diets specified in Table 7 (experimental design) and Section 5.2 over a period of 28 days. The animals were kept individually in Makrolon cages on stainless grids under standard conditions (22° C., 55% relative humidity, 12 hour light/dark rhythm). Feed and deionized drinking water were available to the experimental animals ad libitum. During the 2nd and 3rd experimental week (metabolism phase) feces were collected quantitatively. After completion of the experimental phase (day 28), the animals were decapitated under CO2— anesthesia, exsanguinated and the tissue to be analyzed was removed. Groups Ib, IIb and IIIb here are Example 5, while Groups Ia, IIa and IIIa are Comparison Example 2.
During the two-week metabolism phase, the rat feces were collected daily, adherent feed residues and other impurities were removed and the samples were stored at −20° C. At the end of the metabolism period the fecal weight was determined quantitatively and feces were then freeze-dried under vacuum over a period of 48 h (Gamma 1-20, Christ, Osterode). The dried samples were finely around using a domestic grinder (Moulinette electronic 89902) and stored at ambient temperature in PE bottles.
A sample aliquot of 1.5 g or the freeze-dried and ground fecal samples was dried for 24 h at 105° C. to remove residual water and then ashed in a muffle furnace at 450° C. for 21 h. The ash residue was dissolved by acid addition and then analyzed quantitatively. The Zn concentration in the fecal samples was determined by flame-AAS (Philips, PU 9400, Kassel). • 5.3.4 Diagnosis of Zn status
(§2) Zn absorption was calculated, without taking into account endogenous level as a difference between element […] and fecal excretion (=apparent absorption). Plasma Zn concentration was determined by AAS (Philips, PU 9400, Kassel). The samples were diluted with 0.1 M HCl in a ratio of 1:20 (v/v). The activity of the Zn metalloenzyme alkaline phosphatase (AP) (E.C. 3.1.3.1) wan assayed using the individual chemicals diethanolamine buffer and p-nitrophenyl phosphate according to the recommendations of the […] FÜR […] CHIMIE [German Clinical Chemistry Society] ([…] FÜR […] CHEMIE (1972). Standardmethode zur Bestimmung der Aktivität der alkalischen Phosphatase (AP) [Standard Method for Determining Alkaliur Phosphatase (AP) Activity]. Z. klin. Chem u. klin. Biochemie. 10, 191). • 5.3.5 Metallothionin in liver tissue

[2] = system: alkaline phosphatase (AP) (E.C. 3.1.3.1); assay: Study 3: alkaline phosphatase activity in plasma; settings: rats, day 28
Protocol: as §1, §2

[3] = Study 3: Zn concentration in the femur; settings: rats; for Zn concentration in Femur: day 28
Protocol: as §1
The ash solutions were prepared by the principle of wet ashing. The sample material was admixed with 10 ml of 65% strength HNO3 (Merck, Suprapur) and then boiled under a reflux condenser in a digestion apparatus (Gerhardt SMA-20, Bonn). This oxidatively degraded the organic matrix and completely mineralized the test material. The Zn concentration was determined in the ash solutions by flame-AAS (Philips, PU 9400, Kassel). • 5.3.3 Analysis of the fecal samples

[4] = Study 1/Study 2: bioavailability of Zn lipoate and ZnSO4 in rats (Example 4, Comparison Example 1)
Protocol: Male Albino rats (Wistar) of an initial weight of 40 g were used. The animals were kept during each 28-day experimental period at a room temperature of 22° C., a relative humidity of approximately 55% and in a 12-hour light-dark cycle. The rats were housed individually in Makrolon cages with stainless steel bottoms which permitted controlled feed intake and quantitative collection of feces and urine. The feed was provided once a day at 8^00. The live mass of the rats was determined weekly, feces and urine were collected every day at 10^00 and 17^00. At the end of the experiment, the rats were decapitated after chloroform anesthesia. • 4.2 Description of the diets and experimental design
6 rats are used per experimental group. The mealy diets were administered ad lib. […] The control group (group 1) received the PA-free base diet.
The amounts of feces and urine produced separately in the metabolic cages are collected quantitatively every day and stored at −22° C. To avoid any losses of N in the urine collection vessels, 1 ml of 20% strength HCl (Suprapur) is added to each of the vessels daily. For further analysis, the sample material is freeze-dried for 48 h. • 4.3.2 Organ and tissue samples
The right femur, liver and testes are removed immediately after decapitation and complete exsanguination of the animals and the fresh mass is determined. The samples are sealed in plastic film and stored at −22° C. until further analysis. • 4.3.3 Blood
The rats are decapitated at the end of the experiment after complete narcosis with chloroform and the blood collected in heparinized plastic tubes. 40 I.U. of heparin sodium are introduced per ml of blood. […]
Zinc is determined by means of atomic absorption spectrophotometry (AAS) in an acetylene flame. • 4.5 Diagnosis of zinc status • 4.5.1 Determination of the plasma zinc concentration
The plasma zinc concentration is measured directly in the flame by means of AAS (Philips, PIJ 9400). […]
The enzyme activity is measured kinetically on a semimicroscale at a wavelength of 405 nm and 25° C. using a UV spectrophotometer. […]

[5] = Study 3: zootechnical parameters (feed intake, live weight) of growing rats; settings: for LW Gain: 28 days; for Live weight d0: initial weight
Protocol: as §1
Parameters used to estimate Zn availability were the zootechnical parameters feed intake, live weight development and live weight increase, apparent Zn absorption, alkaline phosphatase activity in plasma, plasma and femur Zn concentration and metallothionin concentration in liver tissue. • 5.2 Experimental diets
The experimental animals were fed semisynthetic diets based on high-purity components (corn starch, egg albumin protein, sucrose, soybean oil and cellulose) over a period of 28 days (see Table 8 for composition of the base diet), the experimental diets differing with respect to the type of zinc compound supplemented, the absolute Zn concentration and the phytic acid content (0.4% PA from NaPA, Sigma-Aldrich, Steinheim) (see Table 7).
Zn supplements used were Zn ((R)-α-Lipoat)2(H2O)2 from Example 1 (Example 5) and Zn sulfate (ZnSO4.7 H2O analytical grade, Merck, Darmstadt) (Comparison Example 2). The Zn concentrations of the experimental diets Ia-IIb were set at a level of 10 mg/kg of diet estimated to be marginal for growing rats, in order to enable investigation of the availability of the Zn supplements under test in the suboptimun supply range.

metallothionin = assay: Study 3: metallothionin in liver tissue; settings: rats; for Metallothionin concentration in liver tissue: day 28
Protocol: as §1
Total MT concentration in liver tissue was determined using the cadmium-binding method of EATON and TOAL (EATON, D. L., TOAL, B. F. (1982): Evaluation of the cadmium/hemoglobin affinity assay for the rapid determination of metallothionein in biological tissues. Toxicol Appl. Pharmacol. 66, 134-142) in a modification tested at the Giessen Institute (LEUNERT, V. (1994): Einfluβ von Zink sowie fetalem Kälberserum, bovinem Serumalbumin und calciummobilisierenden Rezeptoragonlsten auf Metallothionein in primär kultivierten Rattenhepatocyten [Effect of zinc and fecal calf serum, vine serum albumin and calcium-immobilizing receptor agonists on metallothionin in primary cultivations of rat hepatocytes]. Inaugural dissertation at the Institut für Tierernahrung und Ernährungse-physiologie [Institute of Animal Nutrition and Nutritional Physiology] of the University of Cicesen, Verlag Shaker, Aachen, PALLAUF et al. 1995). The protein content in liver homogenates war determined using the Lowry-Folin method (DAWSON, R. M. C. ELLIOTT, D C; JONES, K. M. (1986): Data for biochemical research, 3rd ed., Clarendon Press, New York, 543). • 5.3.5. Statistical analysis

[6] = 10 ppm Zn, PA-free diet (group I)
[7] = 20 ppm Zn + 0.4% PA (group III)

With O=C(O)CCCC[C@@H]1CCSS1 [Zn lipoate, Zn((R)-α-lipoate)2(H2O)2] the “absolute Zn absorption, Zn lipoate group versus Zn sulfate group” value ([1]; 20 mg Zn/kg of diet + 0.4% PA (groups IIIa, IIIb)) was “statistically significant higher”, the “Apparent absorption of Zn” value ([1]; 10 ppm Zn + 0.4% PA (group II)) was 47.3 ^a % and the “Apparent absorption of Zn (absolute)” value ([1]; 10 ppm Zn + 0.4% PA (group II)) was 0.446 ^a mg/14 d. For the same molecule, the “Fecal excretion of Zn” value ([1]; 10 ppm Zn + 0.4% PA (group II)) was 0.494 ^a mg/14 d, the “Apparent absorption of Zn” value [1, 6] was 73.6 ^b % and the “Apparent absorption of Zn (absolute)” value [1, 6] was 1.24 ^b mg/14 d. The “Fecal excretion of Zn” value [1, 6] was 0.445 ^a mg/14 d, the “Apparent absorption of Zn” value [1, 7] was 48.4 ^a % and the “Apparent absorption of Zn (absolute)” value [1, 7] was 1.60 mg/14 d and 1.60 ^c mg/14 d. The “Fecal excretion of Zn” value [1, 7] was 1.71 ^b mg/14 d, the “apparent Zn absorption (%), effect of Zn lipoate supplementation” value ([1]; PA diets, group IIa to IIb and IIIa to IIIb) was “increase” and the “Alkaline Phosphatase activity in plasma” value ([2]; 10 ppm Zn + 0.4% PA (group II)) was 225 ^a mU/ml Plasma. The “Alkaline Phosphatase activity in plasma” value [2, 6] was 365 ^b mU/ml Plasma, the “Alkaline Phosphatase activity in plasma” value [2, 7] was 384 ^b mU/ml Plasma and the “Zn concentration in Femur” value ([3]; 10 ppm Zn + 0.4% PA (group II)) was 41.2 ^a μg/g FW. The “Zn concentration in Femur” value [3, 6] was 79.2 ^c μg/g FW, the “Zn concentration in Femur” value [3, 7] was 64.1 ^b μg/g FW and the “level of Zn incorporation into the femur tissue, compared with Zn sulfate” value ([3]; with addition of phytate) was “beneficial effect”. The “zinc deficiency symptoms (anorexia, alopecia, depression of growth)” value ([4]; diet with 0.4% NaPA, high dose 20 mg Zn/kg of feed, 28 days) was “disappear completely”, the “Zn status parameters of blood plasma (Zn concentration, free zinc binding capacity, alkaline phosphatase activity) and femur and liver Zn concentration” value ([4]; in comparison with Zn sulfate) was “improved” and the “Feed intake Total” value ([5]; 10 ppm Zn + 0.4% PA (group II)) was 186 ^a g/28d. For the same molecule, the “Feed intake d1-d7” value ([5]; 10 ppm Zn + 0.4% PA (group II)) was 39.5 ^ab g, the “Feed intake d8-d14” value ([5]; 10 ppm Zn + 0.4% PA (group II)) was 46.5 ^a g and the “Feed intake d15-d21” value ([5]; 10 ppm Zn + 0.4% PA (group II)) was 48.2 ^a g. For the same molecule, the “Feed intake d22-d28” value ([5]; 10 ppm Zn + 0.4% PA (group II)) was 51.3 ^a g, the “Live weight d7” value ([5]; 10 ppm Zn + 0.4% PA (group II)) was 60.0^ab g and the “Live weight d14” value ([5]; 10 ppm Zn + 0.4% PA (group II)) was 82.5^a g. For the same molecule, the “Live weight d21” value ([5]; 10 ppm Zn + 0.4% PA (group II)) was 99.1^a g, the “Live weight d28” value ([5]; 10 ppm Zn + 0.4% PA (group II)) was 114.2^a g and the “LW Gain” value ([5]; 10 ppm Zn + 0.4% PA (group II)) was 67.0^a g. For the same molecule, the “Live weight d0” value ([5]; 10 ppm Zn + 0.4% PA (group II)) was 47.2 g, the “Feed intake Total” value [5, 6] was 307 ^b g/28d and the “Feed intake d1-d7” value [5, 6] was 54.9 ^ab g. The “Feed intake d8-d14” value [5, 6] was 78.7 ^c g, the “Feed intake d15-d21” value [5, 6] was 86.9 ^c g and the “Feed intake d22-d28” value [5, 6] was 86.5 ^b g. For the same molecule, the “Live weight d7” value [5, 6] was 75.6^ab g, the “Live weight d14” value [5, 6] was 122.5^b g and the “Live weight d21” value [5, 6] was 159.2^c g. The “Live weight d28” value [5, 6] was 185.8^c g, the “LW Gain” value [5, 6] was 138.7^c g and the “Live weight d0” value [5, 6] was 47.1 g. The “Feed intake Total” value [5, 7] was 300 ^b g/28d, the “Feed intake d1-d7” value [5, 7] was 60.0 ^b g and the “Feed intake d8-d14” value [5, 7] was 77.3 ^c g. For the same molecule, the “Feed intake d15-d21” value [5, 7] was 79.2 ^bc g, the “Feed intake d22-d28” value [5, 7] was 83.5 ^b g and the “Live weight d7” value [5, 7] was 77.9^b g. For the same molecule, the “Live weight d14” value [5, 7] was 119.1^b g, the “Live weight d21” value [5, 7] was 147.4^bc g and the “Live weight d28” value [5, 7] was 173.2^bc g. For the same molecule, the “LW Gain” value [5, 7] was 125.9^bc g, the “Live weight d0” value [5, 7] was 47.3 g and the “total feed intake, change owing to Zn-α-lipoate feeding” value ([5]; 28-day period, versus Zn sulfate groups) was “increase”. For the same molecule, the “live weight gain, Zn lipoate compared with Zn sulfate” value ([5]; in each case (groups I, II, III)) was “increase”, the “Metallothionin concentration in liver tissue” value (“Metallothionin concentration” below) (metallothionin; 10 ppm Zn + 0.4% PA (group II)) was 7.94 ng MT/mg Protein and the “Metallothionin concentration” value (metallothionin; [6]) was 8.32 ng MT/mg Protein. The “Metallothionin concentration” value (metallothionin; [7]) was 8.71 ng MT/mg Protein and the “hepatic MT concentration, Zn lipoate versus ZnSO4 as Zn source” value (metallothionin; all groups (I, II and III)) was “nominal increases”.
